Experimental data taken from ChEMBL document CHEMBL1201862, “PubChem BioAssay data set” (2004).
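Assay format: 96-well plates, 48-hour exposure. GI50 = concentration required for 50% inhibition of growth.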 Active and inactive are the calls of the source. No stated cut-off is given here; in the data, active = GI50 up to about 1.1 µM and inactive = higher.

Assays:
Assay in all cases: NCI-60 cell line screen, 48 h
BT-549 = test system: BT-549
SNB-75 = test system: SNB-75
ACHN = test system: ACHN
CAKI-1 = test system: CAKI-1
786-0 = test system: 786-0
T47D = test system: T47D
CCRF-CEM = test system: CCRF-CEM
SK-OV-3 = test system: SK-OV-3
NCI-H460 = test system: NCI-H460
MDA-MB-435 = test system: MDA-MB-435
OVCAR-8 = test system: OVCAR-8
COLO 205 = test system: COLO 205
HL-60 = test system: HL-60
A498 = test system: A498
LOX IMVI = test system: LOX IMVI
UO-31 = test system: UO-31
SK-MEL-2 = test system: SK-MEL-2
A549 = test system: A549
NCI-H226 = test system: NCI-H226
HCC 2998 = test system: HCC 2998
RPMI-8226 = test system: RPMI-8226
SF-539 = test system: SF-539
HCT-15 = test system: HCT-15
MDA-MB-231 = test system: MDA-MB-231
UACC-257 = test system: UACC-257
HT-29 = test system: HT-29
HOP-62 = test system: HOP-62
SK-MEL-5 = test system: SK-MEL-5
EKVX = test system: EKVX
MDA-N = test system: MDA-N
SNB-19 = test system: SNB-19
NCI-H23 = test system: NCI-H23
OVCAR-4 = test system: OVCAR-4
U-251 = test system: U-251
HCT-116 = test system: HCT-116
NCI/ADR-RES = test system: NCI/ADR-RES
SR = test system: SR
OVCAR-3 = test system: OVCAR-3
K562 = test system: K562
SW-620 = test system: SW-620
UACC-62 = test system: UACC-62
SF-268 = test system: SF-268
MCF7 = test system: MCF7
M14 = test system: M14
DU-145 = test system: DU-145
NCI-H522 = test system: NCI-H522
SN12C = test system: SN12C
PC-3 = test system: PC-3
Hs-578T = test system: Hs-578T
IGROV-1 = test system: IGROV-1
MOLT-4 = test system: MOLT-4
OVCAR-5 = test system: OVCAR-5
SF-295 = test system: SF-295
Malme-3M = test system: Malme-3M
KM12 = test system: KM12
TK-10 = test system: TK-10
HOP-92 = test system: HOP-92
RXF 393 = test system: RXF 393
SK-MEL-28 = test system: SK-MEL-28

Structure (SMILES): Nc1c(C(=O)O)nnc2cc(Cl)c(Cl)cc12
- GI50 (BT-549): 72.6 µM (inactive)
- GI50 (SNB-75): > 100 µM (inactive)
- GI50 (ACHN): > 100 µM (inactive)
- GI50 (CAKI-1): > 100 µM (inactive)
- GI50 (786-0): > 100 µM (inactive)
- GI50 (T47D): > 100 µM (inactive)
- GI50 (CCRF-CEM): > 100 µM (inactive)
- GI50 (SK-OV-3): > 100 µM (inactive)
- GI50 (NCI-H460): > 100 µM (inactive)
- GI50 (MDA-MB-435): > 100 µM (inactive)
- GI50 (OVCAR-8): > 100 µM (inactive)
- GI50 (COLO 205): > 100 µM (inactive)
- GI50 (HL-60): 57 µM (inactive)
- GI50 (A498): 91 µM (inactive)
- GI50 (LOX IMVI): 82 µM (inactive)
- GI50 (UO-31): 56.9 µM (inactive)
- GI50 (SK-MEL-2): > 100 µM (inactive)
- GI50 (A549): > 100 µM (inactive)
- GI50 (NCI-H226): 47.8 µM (inactive)
- GI50 (HCC 2998): > 100 µM (inactive)
- GI50 (RPMI-8226): > 100 µM (inactive)
- GI50 (SF-539): > 100 µM (inactive)
- GI50 (HCT-15): > 100 µM
- GI50 (MDA-MB-231): > 100 µM (inactive)
- GI50 (UACC-257): > 100 µM (inactive)
- GI50 (HT-29): > 100 µM (inactive)
- GI50 (HOP-62): > 100 µM (inactive)
- GI50 (SK-MEL-5): > 100 µM (inactive)
- GI50 (EKVX): > 100 µM (inactive)
- GI50 (MDA-N): > 100 µM (inactive)
- GI50 (SNB-19): > 100 µM (inactive)
- GI50 (NCI-H23): > 100 µM (inactive)
- GI50 (OVCAR-4): > 100 µM (inactive)
- GI50 (U-251): > 100 µM (inactive)
- GI50 (HCT-116): > 100 µM (inactive)
- GI50 (NCI/ADR-RES): > 100 µM (inactive)
- GI50 (SR): > 100 µM (inactive)
- GI50 (OVCAR-3): > 100 µM (inactive)
- GI50 (K562): > 100 µM (inactive)
- GI50 (SW-620): > 100 µM (inactive)
- GI50 (UACC-62): > 100 µM (inactive)
- GI50 (SF-268): > 100 µM (inactive)
- GI50 (MCF7): > 100 µM (inactive)
- GI50 (M14): > 100 µM (inactive)
- GI50 (DU-145): > 100 µM (inactive)
- GI50 (NCI-H522): > 100 µM (inactive)
- GI50 (SN12C): > 100 µM (inactive)
- GI50 (PC-3): > 100 µM (inactive)
- GI50 (Hs-578T): > 100 µM (inactive)
- GI50 (IGROV-1): > 100 µM (inactive)
- GI50 (MOLT-4): > 100 µM (inactive)
- GI50 (OVCAR-5): > 100 µM (inactive)
- GI50 (SF-295): > 100 µM (inactive)
- GI50 (Malme-3M): > 100 µM (inactive)
- GI50 (KM12): > 100 µM (inactive)
- GI50 (TK-10): > 100 µM (inactive)

Structure (SMILES): O=C(O)C(Cc1ccccc1)N1C(=O)c2ccccc2C1=O (stereo not drawn)
- GI50 (BT-549): > 100 µM (inactive)
- GI50 (ACHN): > 100 µM (inactive)
- GI50 (CAKI-1): > 100 µM (inactive)
- GI50 (786-0): > 100 µM (inactive)
- GI50 (T47D): > 100 µM (inactive)
- GI50 (CCRF-CEM): 4.01 µM (inactive)
- GI50 (SK-OV-3): > 100 µM (inactive)
- GI50 (NCI-H460): > 100 µM (inactive)
- GI50 (MDA-MB-435): > 100 µM (inactive)
- GI50 (OVCAR-8): > 100 µM (inactive)
- GI50 (COLO 205): > 100 µM (inactive)
- GI50 (HL-60): 0.0472 µM (active)
- GI50 (A498): > 100 µM (inactive)
- GI50 (LOX IMVI): > 100 µM (inactive)
- GI50 (HOP-92): 29.2 µM (inactive)
- GI50 (UO-31): > 100 µM (inactive)
- GI50 (SK-MEL-2): > 100 µM (inactive)
- GI50 (A549): > 100 µM (inactive)
- GI50 (NCI-H226): > 100 µM (inactive)
- GI50 (HCC 2998): > 100 µM (inactive)
- GI50 (RXF 393): > 100 µM (inactive)
- GI50 (RPMI-8226): > 100 µM (inactive)
- GI50 (SF-539): > 100 µM (inactive)
- GI50 (HCT-15): > 100 µM
- GI50 (MDA-MB-231): > 100 µM (inactive)
- GI50 (UACC-257): > 100 µM (inactive)
- GI50 (HT-29): > 100 µM (inactive)
- GI50 (HOP-62): > 100 µM (inactive)
- GI50 (SK-MEL-5): > 100 µM (inactive)
- GI50 (EKVX): 93.1 µM (inactive)
- GI50 (MDA-N): > 100 µM (inactive)
- GI50 (SNB-19): > 100 µM (inactive)
- GI50 (NCI-H23): > 100 µM (inactive)
- GI50 (OVCAR-4): > 100 µM (inactive)
- GI50 (U-251): > 100 µM (inactive)
- GI50 (HCT-116): > 100 µM (inactive)
- GI50 (NCI/ADR-RES): > 100 µM (inactive)
- GI50 (OVCAR-3): > 100 µM (inactive)
- GI50 (K562): > 100 µM (inactive)
- GI50 (SW-620): 18.7 µM (inactive)
- GI50 (UACC-62): > 100 µM (inactive)
- GI50 (SF-268): > 100 µM (inactive)
- GI50 (MCF7): > 100 µM (inactive)
- GI50 (M14): > 100 µM (inactive)
- GI50 (DU-145): > 100 µM (inactive)
- GI50 (NCI-H522): > 100 µM (inactive)
- GI50 (SN12C): > 100 µM (inactive)
- GI50 (PC-3): > 100 µM (inactive)
- GI50 (Hs-578T): > 100 µM (inactive)
- GI50 (IGROV-1): > 100 µM (inactive)
- GI50 (MOLT-4): > 100 µM (inactive)
- GI50 (OVCAR-5): > 100 µM (inactive)
- GI50 (SF-295): > 100 µM (inactive)
- GI50 (Malme-3M): > 100 µM (inactive)
- GI50 (KM12): > 100 µM (inactive)
- GI50 (SK-MEL-28): 14.4 µM (inactive)
- GI50 (TK-10): > 100 µM (inactive)
